This is an account of results in patent US10485773B2, “Benzenesulfonamide derivatives and method for treating cancer” (GONGWIN BIOPHARM HOLDINGS CO., LTD., priority 2016, dated 2019).

Structures are written as SMILES. pIC50: −log10 of the molar value.

Tested on in the first data set: not listed separately
Kind of data set: first dissolution test in DMSO or water. Conditions: first dissolution test; amount for a 3M solution in 0.5 mL; DMSO, up to 15000 μL. The method, then:
Each of the powder of p-TSA derivatives was duplicated, placed in each 15 mL centrifuge tube, followed by adding 200 μL DMSO or 200 μL water and shaking for 10 to 20 seconds for dissolution observation. If the powder was not dissolved, additional DMSO or water was added, and then the mixture was shaken. The tube was left to stand for 10 minutes for observation if the powder was still not dissolved after adding 1 mL DMSO or 1 mL water. If the powder was still not dissolved after adding 5 mL DMSO or 5 mL water, additional 1 mL DMSO or 1 mL water was added, and then the mixture was shaken for 30 seconds. If the powder was still not dissolved after adding 10 mL DMSO or 10 mL water, the tube was left to stand for 12 to 16 hours and observed on the next day. DMSO or water was added into the tube having the undissolved p-TSA derivatives up to 15 mL, followed by shaking for 30 minutes for observation.
For `CC(=O)NS(=O)(=O)c1ccc(C)cc1` [PTSA001], the “Total volume of DMSO for dissolving the p-TSA derivatives” value was determined as 510 µL.

With `NS(=O)(=O)c1ccc(C(=O)O)cc1` [PTSA004], the “Total volume of DMSO for dissolving the p-TSA derivatives” value is 960 (with pipetting) μL.

For the molecule `COC(=O)NS(=O)(=O)c1ccc(C)cc1` [PTSA011], the “Total volume of DMSO for dissolving the p-TSA derivatives” value is 560 µL.

As for `COC(=O)NS(=O)(=O)c1ccc(C)cc1` [PTSA012], the “Total volume of DMSO for dissolving the p-TSA derivatives” value was determined as 680 µL.

With `CCOC(=O)NS(=O)(=O)c1ccc(C)cc1` [PTSA014], the “Total volume of DMSO for dissolving the p-TSA derivatives” value is 610 µL.

With `CCOC(=O)NS(=O)(=O)c1ccc(C)cc1` [PTSA015], the “Total volume of DMSO for dissolving the p-TSA derivatives” value amounted to 815 µL.

With `Cc1ccc(S(=O)(=O)NC(=O)NS(=O)(=O)c2ccc(C)cc2)cc1` [PTSA017], the “Total volume of DMSO for dissolving the p-TSA derivatives” value is 2000 µL.

Take `Cc1ccc(S(=O)(=O)NC(=O)NS(=O)(=O)c2ccc(C)cc2)cc1` [PTSA018]: the “Total volume of DMSO for dissolving the p-TSA derivatives” value came out at 2000 µL.

Regarding `Cc1ccc(S(=O)(=O)NCCO)cc1` [PTSA020], the “Total volume of DMSO for dissolving the p-TSA derivatives” value was determined as 490 µL.

`Cc1ccc(S(=O)(=O)NCCCO)cc1` [PTSA021]: the “Total volume of DMSO for dissolving the p-TSA derivatives” value was found to be 495 µL.

With `Cc1ccc(S(=O)(=O)NCCOCCO)cc1` [PTSA022], the “Total volume of DMSO for dissolving the p-TSA derivatives” value was 505 µL.

Regarding `Cc1ccc(S(=O)(=O)NC[C@H](C)O)cc1` [PTSA023], the “Total volume of DMSO for dissolving the p-TSA derivatives” value amounted to 500 µL.

For the molecule `Cc1ccc(S(=O)(=O)NCC(C)O)cc1` (stereo not shown) [PTSA024], the “Total volume of DMSO for dissolving the p-TSA derivatives” value came out at 515 µL.

Still in this data set, the particulars now being: first dissolution test; amount for a 3M solution in 0.5 mL; water, up to 15000 μL.
`CC(=O)NS(=O)(=O)c1ccc(C)cc1` [PTSA001]: the “Total volume of water for dissolving the p-TSA derivatives” value is “insoluble in 15000 μL”.

Consider `NS(=O)(=O)c1ccc(C(=O)O)cc1` [PTSA004], for which the “Total volume of water for dissolving the p-TSA derivatives” value is recorded as “insoluble in 15000 μL”.

With `COC(=O)NS(=O)(=O)c1ccc(C)cc1` [PTSA011], the “Total volume of water for dissolving the p-TSA derivatives” value is listed as “insoluble in 15000 μL”.

Turning to `COC(=O)NS(=O)(=O)c1ccc(C)cc1` [PTSA012], the “Total volume of water for dissolving the p-TSA derivatives” value is 500 µL.

In the case of `CCOC(=O)NS(=O)(=O)c1ccc(C)cc1` [PTSA014], the “Total volume of water for dissolving the p-TSA derivatives” value is reported as “insoluble in 15000 μL”.

Take `CCOC(=O)NS(=O)(=O)c1ccc(C)cc1` [PTSA015]: the “Total volume of water for dissolving the p-TSA derivatives” value amounted to 500 µL.

As to `Cc1ccc(S(=O)(=O)NC(=O)NS(=O)(=O)c2ccc(C)cc2)cc1` [PTSA017], the “Total volume of water for dissolving the p-TSA derivatives” value is on record as “insoluble in 15000 μL”.

In the case of `Cc1ccc(S(=O)(=O)NC(=O)NS(=O)(=O)c2ccc(C)cc2)cc1` [PTSA018], the “Total volume of water for dissolving the p-TSA derivatives” value was 2500 µL.

As to `Cc1ccc(S(=O)(=O)NCCO)cc1` [PTSA020], the “Total volume of water for dissolving the p-TSA derivatives” value is 10000 µL.

As for `Cc1ccc(S(=O)(=O)NCCCO)cc1` [PTSA021], the “Total volume of water for dissolving the p-TSA derivatives” value is recorded as “insoluble in 15000 μL”.

For the molecule `Cc1ccc(S(=O)(=O)NCCOCCO)cc1` [PTSA022], the “Total volume of water for dissolving the p-TSA derivatives” value was “insoluble in 15000 μL”.

Take `Cc1ccc(S(=O)(=O)NC[C@H](C)O)cc1` [PTSA023]: the “Total volume of water for dissolving the p-TSA derivatives” value is on record as “insoluble in 15000 μL”.

As for `Cc1ccc(S(=O)(=O)NCC(C)O)cc1` (stereo not shown) [PTSA024], the “Total volume of water for dissolving the p-TSA derivatives” value is reported as “insoluble in 15000 μL”.

Another data set concerns human liver cancer cell lines Hep3B. Kind of data set: SRB growth inhibition of liver cancer cells. It is filed as cell-based. The conditions noted are these: Homo sapiens, Hep3B, 48 h, derivative dissolved in DMSO; 48 hours; SRB; read-out: IC50 of Hep3B in DMSO. The procedure: (§1) After letting to stand for 10 minutes at room temperature, the supernatant of each well was removed, and each well was washed with 200 μL H2O once. […] Each of the plates was then placed in the laminar flow cabinet for 1 hour for air dry. 50 μL 0.4% sulforhodamine B (SRB) dye was added into each well of the 96-well plate. […] Each of the plates was then placed in the laminar flow cabinet for 40 minutes to 1 hour for air dry. 1×Tris-Base solution with pH 7.0 to 7.4 was added to each well of the 96-well plate to dissolve the protein complex formed in the bottom of each well, followed by tapping the 96-well plate, allowing the complex in each well to be dissolved uniformly. Absorption of each well under 515 nm was read. […] Each of the experimental group was performed in triplet.
For the molecule `NS(=O)(=O)c1ccc(C(=O)O)cc1` [PTSA004], the pIC50 was less than 2.15.

For the molecule `COC(=O)NS(=O)(=O)c1ccc(C)cc1` [PTSA011], the pIC50 was 2.34.

Take `CCOC(=O)NS(=O)(=O)c1ccc(C)cc1` [PTSA014]: the pIC50 is 2.34.

As for `Cc1ccc(S(=O)(=O)NC(=O)NS(=O)(=O)c2ccc(C)cc2)cc1` [PTSA017], the negative-log IC50 (pIC50) was less than 2.52.

In the case of `Cc1ccc(S(=O)(=O)NCCO)cc1` [PTSA020], the pIC50 was 2.58.

Turning to `Cc1ccc(S(=O)(=O)NCCCO)cc1` [PTSA021], the pIC50 is 2.55.

Consider `Cc1ccc(S(=O)(=O)NCCOCCO)cc1` [PTSA022], for which the pIC50 is 2.33.

In the case of `Cc1ccc(S(=O)(=O)NC[C@H](C)O)cc1` [PTSA023], the pIC50 is 2.58.

For the molecule `Cc1ccc(S(=O)(=O)NCC(C)O)cc1` (stereo not shown) [PTSA024], the pIC50 was 2.42.

Staying with this data set, now noted: Homo sapiens, Hep3B, 48 h, derivative dissolved in water; 48 hours; SRB; read-out: IC50 of Hep3B in water.
`Cc1ccc(S(=O)(=O)NC(=O)NS(=O)(=O)c2ccc(C)cc2)cc1` [PTSA018]: the pIC50 was less than 2.52.

Consider `Cc1ccc(S(=O)(=O)NCCO)cc1` [PTSA020], for which the pIC50 is less than 3.00.

The same data set, now with this note: derivative dissolved in DMSO; 48 hours; SRB; read-out: IC50 of Hep3B in DMSO.
Regarding `CC(=O)NS(=O)(=O)c1ccc(C)cc1` [PTSA001], the pIC50 is less than 2.05.

Take `COC(=O)NS(=O)(=O)c1ccc(C)cc1` [PTSA012]: the pIC50 was 2.12.

Take `CCOC(=O)NS(=O)(=O)c1ccc(C)cc1` [PTSA015]: the pIC50 was 2.24.

Regarding `Cc1ccc(S(=O)(=O)NC(=O)NS(=O)(=O)c2ccc(C)cc2)cc1` [PTSA018], the negative logarithm of the IC50 (pIC50) is less than 2.52.

The subject of the next data set is human non-small-cell lung cancer cell lines H460. Kind of data set: SRB growth inhibition of lung cancer cells. Type of data set: cell-based. The conditions noted are these: Homo sapiens, NCI-H460, 48 h, derivative dissolved in DMSO; 48 hours; SRB; read-out: IC50 of H460 in DMSO. The method, then: as §1
For the molecule `NS(=O)(=O)c1ccc(C(=O)O)cc1` [PTSA004], the pIC50 is 2.01.

With `COC(=O)NS(=O)(=O)c1ccc(C)cc1` [PTSA011], the pIC50 is 2.26.

As to `CCOC(=O)NS(=O)(=O)c1ccc(C)cc1` [PTSA014], the pIC50 is 2.24.

In the case of `Cc1ccc(S(=O)(=O)NC(=O)NS(=O)(=O)c2ccc(C)cc2)cc1` [PTSA017], the negative-log IC50 (pIC50) was less than 2.52.

Turning to `Cc1ccc(S(=O)(=O)NCCO)cc1` [PTSA020], the pIC50 was 2.58.

Consider `Cc1ccc(S(=O)(=O)NCCCO)cc1` [PTSA021], for which the pIC50 is 2.61.

Consider `Cc1ccc(S(=O)(=O)NCCOCCO)cc1` [PTSA022], for which the negative logarithm of the IC50 (pIC50) is 2.44.

Regarding `Cc1ccc(S(=O)(=O)NC[C@H](C)O)cc1` [PTSA023], the pIC50 is 2.54.

Consider `Cc1ccc(S(=O)(=O)NCC(C)O)cc1` (stereo not shown) [PTSA024], for which the negative-log IC50 (pIC50) was 2.49.

Still in this data set, the particulars now being: Homo sapiens, NCI-H460, 48 h, derivative dissolved in water; 48 hours; SRB; read-out: IC50 of H460 in water.
As for `COC(=O)NS(=O)(=O)c1ccc(C)cc1` [PTSA012], the pIC50 is less than 2.30.

Turning to `CCOC(=O)NS(=O)(=O)c1ccc(C)cc1` [PTSA015], the negative-log IC50 (pIC50) was 2.30.

As for `Cc1ccc(S(=O)(=O)NC(=O)NS(=O)(=O)c2ccc(C)cc2)cc1` [PTSA018], the pIC50 was less than 2.52.

Consider `Cc1ccc(S(=O)(=O)NCCO)cc1` [PTSA020], for which the pIC50 is less than 3.00.

Staying with this data set, now noted: derivative dissolved in DMSO; 48 hours; SRB; read-out: IC50 of H460 in DMSO.
For the molecule `CC(=O)NS(=O)(=O)c1ccc(C)cc1` [PTSA001], the negative logarithm of the IC50 (pIC50) was 2.11.

With `COC(=O)NS(=O)(=O)c1ccc(C)cc1` [PTSA012], the pIC50 was 2.21.

Regarding `CCOC(=O)NS(=O)(=O)c1ccc(C)cc1` [PTSA015], the pIC50 was 2.32.

As to `Cc1ccc(S(=O)(=O)NC(=O)NS(=O)(=O)c2ccc(C)cc2)cc1` [PTSA018], the pIC50 is less than 2.52.

As usually defined, the pIC50 is −log10 of the IC50, conventionally taken in molar units.
